Where two headings read alike, the source gives them in different places.
Columns and labels:
[1] = test system: T-Rex 293 cell line SC3 cells having increased expression of androgen receptor protein due to exposure to doxycycline; test: Cellular growth inhibition assay, T-Rex 293 SC3 cells with doxycycline (CellTiter-Glo, 72 hours); assay type: cell-based; conditions: T-Rex 293 SC3 cells with increased androgen receptor expression due to doxycycline (10 ng/mL)
In short: (§1)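 Doxycycline (10 ng/mL) was either included or omitted to toggle wild-type androgen receptor expression in SC3 cells, a T-Rex 293 clone, grown in stripped-serum, phenol red-free medium. After 72 hours with compound, viable cells were quantified by CellTiter-Glo 2.0.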

[2] = test system: T-Rex 293 cell line SC3 cells lacking increased expression of androgen receptor protein; test: Cellular growth inhibition assay, T-Rex 293 SC3 cells without doxycycline (CellTiter-Glo, 72 hours); assay type: cell-based; conditions: T-Rex 293 cell line SC3 cells not exposed to doxycycline (lacking increased androgen receptor expression)
In short: as §1

VCaP cells = test: Cellular growth inhibition assay for VCaP cells (CellTiter-Glo, 72 hours); assay type: cell-based, human
In short: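 Luminescent viability signal after 72 h of compound exposure gave GI50 values by four-parameter nonlinear regression. Compounds were added in 0.5% DMSO to cells plated 24 h earlier at 5000/well in DMEM containing 10% FBS.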

T47D cells = test: Cellular growth inhibition assay for T47D cells (CellTiter-Glo, 72 hours); assay type: cell-based, human; conditions: 72 hours treatment
In short: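 Growth inhibition as GI50, fitted with four parameters to CellTiter-Glo luminescence after 72 h of compound exposure (0.5% DMSO). Cells were T47D, grown in insulin-supplemented (0.2 units/mL) DMEM with 10% FBS and treated one day post-seeding.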

## Cc1sc2c(c1C)C(c1ccc(O[C@@H]3CCCN(c4ccc(C(=O)N[C@H]5CC[C@H](Oc6ccc(C#N)c(Cl)c6)CC5)nn4)C3)cc1)=N[C@@H](Cc1ncco1)c1nnc(C)n1-2 [I-224]
[1]; 72 h
  GI50: < 0.5 µM
[2]; 72 h
  GI50: > 3 µM
VCaP cells; Homo sapiens, VCaP, 72 h
  GI50: < 0.5 µM
T47D cells; Homo sapiens, T47D, 72 h
  GI50: < 0.5 µM

## Cc1sc2c(c1C)C(c1ccc(CC[C@H]3CCCN(c4ccc(C(=O)N[C@H]5CC[C@H](Oc6ccc(C#N)c(Cl)c6)CC5)nn4)C3)cc1)=N[C@@H](Cc1ncco1)c1nnc(C)n1-2 [I-254]
[1]; 72 h
  GI50: < 0.5 µM
[2]; 72 h
  GI50: < 0.5 µM
VCaP cells; Homo sapiens, VCaP, 72 h
  GI50: < 0.5 µM
T47D cells; Homo sapiens, T47D, 72 h
  GI50: < 0.5 µM

## Cc1sc2c(c1C)C(c1ccc(OC3CC4(CCN(c5ccc(C(=O)N[C@H]6CC[C@H](Oc7ccc(C#N)c(Cl)c7)CC6)nn5)CC4)C3)cc1)=N[C@H](Cc1ncco1)c1nnc(C)n1-2 [I-80]
[1]; 72 h
  GI50: < 0.5 µM
[2]; 72 h
  GI50: > 3 µM
VCaP cells; Homo sapiens, VCaP, 72 h
  GI50: < 0.5 µM
T47D cells; Homo sapiens, T47D, 72 h
  GI50: > 3 µM

## Cc1sc2c(c1C)C(c1ccc(CCC[C@H]3CCCN(c4ccc(C(=O)N[C@H]5CC[C@H](Oc6ccc(C#N)c(Cl)c6)CC5)nn4)C3)cc1)=N[C@@H](C)c1nnc(C)n1-2 [I-323]
[1]; 72 h
  GI50: < 0.5 µM
[2]; 72 h
  GI50: 0.5 to 1.5 µM
VCaP cells; Homo sapiens, VCaP, 72 h
  GI50: < 0.5 µM
T47D cells; Homo sapiens, T47D, 72 h
  GI50: 0.5 to 1.5 µM

## Cc1sc2c(c1C)C(c1ccc(CC[C@H]3C[C@@]4(CCCN(c5ccc(C(=O)N[C@H]6CC[C@H](Oc7ccc(C#N)c(Cl)c7)CC6)nn5)C4)C3)cc1)=N[C@@H](C)c1nnc(C)n1-2 [I-326]
[1]
  GI50: < 0.5 µM
[2]
  GI50: > 3 µM
VCaP cells
  GI50: < 0.5 µM
T47D cells
  GI50: < 0.5 µM

## Cc1sc2c(c1C)C(c1ccc(N3CCC(CNC(=O)c4ccc(C(=O)N[C@H]5CC[C@H](Oc6ccc(C#N)c(Cl)c6)CC5)nn4)CC3)cc1)=N[C@@H](Cc1ncco1)c1nnc(C)n1-2 [I-231]
[1]
  GI50: > 3 µM
[2]
  GI50: > 3 µM
VCaP cells
  GI50: > 3 µM
T47D cells; Homo sapiens, T47D, 72 h
  GI50: 0.5 to 1.5 µM

## Cc1sc2c(c1C)C(c1ccc(OC3CCC4(C3)CN(c3ccc(C(=O)N[C@H]5CC[C@H](Oc6ccc(C#N)c(Cl)c6)CC5)nn3)C4)cc1)=N[C@@H](Cc1ncco1)c1nnc(C)n1-2 (some centres unmarked) [I-85]
[1]; 72 h
  GI50: < 0.5 µM
[2]; 72 h
  GI50: < 0.5 µM
VCaP cells; Homo sapiens, VCaP, 72 h
  GI50: < 0.5 µM
T47D cells; Homo sapiens, T47D, 72 h
  GI50: < 0.5 µM

## Cc1sc2c(c1C)C(c1ccc([C@H]3C[C@@H](C[C@H]4CCCN(c5ccc(C(=O)N[C@H]6CC[C@H](Oc7ccc(C#N)c(Cl)c7)CC6)nn5)C4)C3)cc1)=N[C@@H](Cc1ncco1)c1nnc(C)n1-2 [I-356]
[1]; 72 h
  GI50: > 3 µM
[2]; 72 h
  GI50: > 3 µM
VCaP cells; Homo sapiens, VCaP, 72 h
  GI50: > 3 µM
T47D cells; Homo sapiens, T47D, 72 h
  GI50: > 3 µM

## CCNC(=O)C[C@@H]1N=C(c2ccc(CCC3CN(c4ccc(C(=O)N[C@H]5CC[C@H](Oc6ccc(C#N)c(Cl)c6)CC5)nn4)C3)cc2)c2c(sc(C)c2C)-n2c(C)nnc21 [I-31]
[1]; 72 h
  GI50: < 0.5 µM
[2]; 72 h
  GI50: 0.5 to 1.5 µM
VCaP cells; Homo sapiens, VCaP, 72 h
  GI50: < 0.5 µM
T47D cells; Homo sapiens, T47D, 72 h
  GI50: 0.5 to 1.5 µM

## Cc1sc2c(c1C)C(c1ccc(OC3CC4(CCN(c5ccc(C(=O)N[C@H]6CC[C@H](Oc7ccc(C#N)c(Cl)c7)CC6)nn5)CC4)C3)cc1)=N/C(=C/c1ncco1)c1nnc(C)n1-2 [I-135, N-[4-(3-chloro-4-cyano-phenoxy)cyclohexyl]-6-[2-[4-[(9E)-4,5,13-trimethyl-9-(oxazol-2-ylmethylene)-3-thia-1,8,11,12-tetrazatricyclo[8.3.0.02,6]trideca-2(6),4,7,10,12-pentaen-7-yl]phenoxy]-7-azaspiro[3.5]nonan-7-yl]pyridazine-3-carboxamide]
[1]; 72 h
  GI50: < 0.5 µM
[2]; 72 h
  GI50: > 3 µM
VCaP cells; Homo sapiens, VCaP, 72 h
  GI50: < 0.5 µM
T47D cells; Homo sapiens, T47D, 72 h
  GI50: > 3 µM

## Cc1sc2c(c1C)C(c1ccc(C#CC3CC4(C3)CN(c3ccc(C(=O)N[C@H]5CC[C@H](Oc6ccc(C#N)c(Cl)c6)CC5)nn3)C4)cc1)=N[C@H](Cc1ncco1)c1nnc(C)n1-2 [I-227]
[1]; 72 h
  GI50: < 0.5 µM
[2]; 72 h
  GI50: > 3 µM
VCaP cells; Homo sapiens, VCaP, 72 h
  GI50: < 0.5 µM
T47D cells; Homo sapiens, T47D, 72 h
  GI50: > 3 µM

## Cc1sc2c(c1C)C(c1ccc(CO[C@H]3C[C@@]4(CCCN(c5ccc(C(=O)N[C@H]6CC[C@H](Oc7ccc(C#N)c(Cl)c7)CC6)nn5)C4)C3)cc1)=N[C@@H](C)c1nnc(C)n1-2 [I-353]
[1]; 72 h
  GI50: < 0.5 µM
[2]; 72 h
  GI50: > 3 µM
VCaP cells; Homo sapiens, VCaP, 72 h
  GI50: < 0.5 µM
T47D cells; Homo sapiens, T47D, 72 h
  GI50: 0.5 to 1.5 µM

## Cc1sc2c(c1C)C(c1ccc(C(=O)N3CCN(C(=O)c4ccc(C(=O)N[C@H]5CC[C@H](Oc6ccc(C#N)c(Cl)c6)CC5)nn4)CC3)cc1)=N[C@@H](Cc1ncco1)c1nnc(C)n1-2 [I-238]
[1]; 72 h
  GI50: > 3 µM
[2]; 72 h
  GI50: > 3 µM
VCaP cells; Homo sapiens, VCaP, 72 h
  GI50: > 3 µM
T47D cells; Homo sapiens, T47D, 72 h
  GI50: > 3 µM

## CC1=NN=C2C1c1sc(C)c(C)c1C(c1ccc(C3CCC4(CC3)CCN(c3ccc(C(=O)N[C@H]5CC[C@H](Oc6ccc(C#N)c(Cl)c6)CC5)nn3)CC4)cc1)=N[C@H]2Cc1ncco1 (some centres unmarked) [I-409]
[1]; 72 h
  GI50: > 3 µM
[2]; 72 h
  GI50: > 3 µM
VCaP cells; Homo sapiens, VCaP, 72 h
  GI50: > 3 µM
T47D cells; Homo sapiens, T47D, 72 h
  GI50: > 3 µM
